Test results from patent US12655106B2 (Eikonizo Therapeutics, Inc., priority 2021, dated 2026).
pIC50: −log10 of the molar value.

Key:
[1] = molecular target: T1, Full length Human HDAC6 (Homo sapiens, UniProt Q9UBN7); experiment: Caliper endpoint assay for HDAC enzymatic activity (HDAC6); assay type: biochemical; settings: for pIC50: in vitro enzymatic, Caliper endpoint assay, 30 min pre-incubation, 1 μM substrate peptide; for Selectivity (6 v 8): ratio of HDAC8 IC50/HDAC6 IC50
T1 construct: Full length Human HDAC6; FLAG (C); host or cells: baculovirus expression system
T1 sequence (Q9UBN7 1-1215): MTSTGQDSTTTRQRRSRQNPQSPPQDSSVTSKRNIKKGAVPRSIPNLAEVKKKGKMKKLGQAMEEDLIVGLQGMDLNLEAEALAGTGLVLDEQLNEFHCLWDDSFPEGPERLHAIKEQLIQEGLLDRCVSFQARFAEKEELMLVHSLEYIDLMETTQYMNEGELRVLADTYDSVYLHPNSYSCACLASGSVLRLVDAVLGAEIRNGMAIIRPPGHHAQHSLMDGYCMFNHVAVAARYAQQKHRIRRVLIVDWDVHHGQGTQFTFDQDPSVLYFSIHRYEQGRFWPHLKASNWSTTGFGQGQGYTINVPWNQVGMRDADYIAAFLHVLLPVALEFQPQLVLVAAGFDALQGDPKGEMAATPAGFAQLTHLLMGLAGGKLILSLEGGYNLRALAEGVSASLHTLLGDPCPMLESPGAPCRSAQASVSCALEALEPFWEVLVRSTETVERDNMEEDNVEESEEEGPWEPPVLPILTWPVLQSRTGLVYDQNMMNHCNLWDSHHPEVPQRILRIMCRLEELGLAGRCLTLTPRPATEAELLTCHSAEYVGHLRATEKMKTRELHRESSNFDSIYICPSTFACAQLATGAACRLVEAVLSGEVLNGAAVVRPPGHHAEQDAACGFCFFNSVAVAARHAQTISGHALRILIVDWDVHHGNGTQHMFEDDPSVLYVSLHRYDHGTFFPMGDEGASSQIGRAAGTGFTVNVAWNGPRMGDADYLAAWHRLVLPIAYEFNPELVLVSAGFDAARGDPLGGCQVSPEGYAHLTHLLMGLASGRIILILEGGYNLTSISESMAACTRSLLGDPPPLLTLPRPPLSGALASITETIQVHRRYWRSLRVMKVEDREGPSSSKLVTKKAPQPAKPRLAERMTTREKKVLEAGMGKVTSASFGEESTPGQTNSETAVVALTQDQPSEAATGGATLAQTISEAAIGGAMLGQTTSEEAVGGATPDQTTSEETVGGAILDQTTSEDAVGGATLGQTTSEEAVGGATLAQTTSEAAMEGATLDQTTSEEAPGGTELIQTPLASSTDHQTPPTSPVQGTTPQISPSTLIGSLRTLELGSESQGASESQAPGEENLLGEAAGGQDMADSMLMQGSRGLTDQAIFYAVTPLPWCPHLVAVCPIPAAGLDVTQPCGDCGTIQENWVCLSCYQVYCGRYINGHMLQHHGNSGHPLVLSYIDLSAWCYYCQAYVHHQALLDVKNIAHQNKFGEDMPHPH

[2] = molecular target: T2, Full length Human HDAC8 (Homo sapiens, UniProt Q9BY41); experiment: Caliper endpoint assay for HDAC enzymatic activity (HDAC8); assay type: biochemical; settings: in vitro enzymatic, 30 min pre-incubation, 1 μM substrate peptide
T2 construct: Full length Human HDAC8; HIS (N); host or cells: baculovirus expression system
T2 sequence (Q9BY41 1-377): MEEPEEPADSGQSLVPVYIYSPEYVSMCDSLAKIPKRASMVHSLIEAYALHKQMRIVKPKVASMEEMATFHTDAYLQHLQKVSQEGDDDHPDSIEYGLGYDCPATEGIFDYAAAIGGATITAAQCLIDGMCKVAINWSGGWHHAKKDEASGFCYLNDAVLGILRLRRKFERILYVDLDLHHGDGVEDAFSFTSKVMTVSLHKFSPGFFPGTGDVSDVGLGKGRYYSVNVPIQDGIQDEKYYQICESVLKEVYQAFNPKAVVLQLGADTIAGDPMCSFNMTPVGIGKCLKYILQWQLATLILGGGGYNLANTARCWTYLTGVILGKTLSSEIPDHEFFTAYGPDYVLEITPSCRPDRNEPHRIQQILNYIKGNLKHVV

| Compound | pIC50 [1] | Selectivity (6 v 8) [1] | pIC50 [2] |
| --- | --- | --- | --- |
| CC(=O)N1CC[C@@H](N2CCc3cc(C(=O)NO)cc(F)c3C2)CC12CCC2 (single isomer, unassigned) [Compound 442] | 7.00 to 9.00 | IV (IV: >100-1000) | 4.00 to 5.00 |
| O=C(NO)c1cc(F)c2c(c1)CCN([C@H]1CCOC3(CCC3)C1)C2 (single isomer, unassigned) [Compound 445] | 7.00 to 9.00 | IV (IV: >100-1000) | 4.00 to 5.00 |
| O=C(NO)c1cc(F)c2c(c1)CCN([C@@H]1CCOC3(C1)CN(C1CC1)C3)C2 (single isomer, unassigned) [Compound 449] | 5.00 to 6.00 | III (III: >10-100) | 4.00 to 5.00 |
| CN1CC2(C[C@@H](N3CCc4cc(C(=O)NO)cc(F)c4C3)CCO2)C1 (single isomer, unassigned) [Compound 451] | 7.00 to 9.00 | IV (IV: >100-1000) | 5.00 to 6.00 |
| CN1CC2(C[C@H](N3CCc4cc(C(=O)NO)cc(F)c4C3)CCO2)C1 (single isomer, unassigned) [Compound 452] | 6.00 to 7.00 | III (III: >10-100) | 4.00 to 5.00 |
| CC(=O)N1CC2(C[C@H](N3CCc4cc(C(=O)NO)cc(F)c4C3)CCO2)C1 (single isomer, unassigned) [Compound 453] | 7.00 to 9.00 | IV (IV: >100-1000) | 4.00 to 5.00 |
| CC(=O)N1CC2(C[C@@H](N3CCc4cc(C(=O)NO)cc(F)c4C3)CCO2)C1 (single isomer, unassigned) [Compound 454] | 7.00 to 9.00 | IV (IV: >100-1000) | 4.00 to 5.00 |
| CN1[C@@H]2CC[C@H]1CC(CN1CCc3cc(C(=O)NO)cc(F)c3C1)C2 (single isomer, unassigned) [Compound 482] | 7.00 to 9.00 | IV (IV: >100-1000) | 5.00 to 6.00 |
| CN1[C@@H]2CC[C@H]1CC(CN1CCc3cc(C(=O)NO)cc(F)c3C1)C2 (single isomer, unassigned) [Compound 483] | 7.00 to 9.00 | IV (IV: >100-1000) | 5.00 to 6.00 |
| CC[C@H]1Cc2c(F)cc(C(=O)NO)cc2CN1CC12CC3CC(CC(C3)C1)C2 (single isomer, unassigned) [Compound 508] | 7.00 to 9.00 | III (III: >10-100) | 5.00 to 6.00 |
| CC[C@@H]1Cc2c(F)cc(C(=O)NO)cc2CN1CC1CCCCC1 (single isomer, unassigned) [Compound 517] | 7.00 to 9.00 | III (III: >10-100) | 5.00 to 6.00 |
| CC[C@H]1Cc2c(F)cc(C(=O)NO)cc2CN1CC1CCCCC1 (single isomer, unassigned) [Compound 518] | 7.00 to 9.00 | IV (IV: >100-1000) | 5.00 to 6.00 |
| CC[C@H]1Cc2c(F)cc(C(=O)NO)cc2CN1CC1CC2(CCCCC2)C1 (single isomer, unassigned) [Compound 522] | 7.00 to 9.00 | III (III: >10-100) | 6.00 to 7.00 |
| CC[C@@H]1Cc2c(F)cc(C(=O)NO)cc2CN1CC1CCC2(CCC2)CC1 (single isomer, unassigned) [Compound 527] | 7.00 to 9.00 | III (III: >10-100) | 5.00 to 6.00 |
| CC[C@H]1Cc2c(F)cc(C(=O)NO)cc2CN1CC1CCC2(CCC2)CC1 (single isomer, unassigned) [Compound 528] | 7.00 to 9.00 | III (III: >10-100) | 5.00 to 6.00 |
| CC[C@@H]1Cc2c(F)cc(C(=O)NO)cc2CN1CC1C2CC1CN(C)C2 (single isomer, unassigned) [Compound 530] | 6.00 to 7.00 | III (III: >10-100) | 4.00 to 5.00 |
| CC[C@H]1Cc2c(F)cc(C(=O)NO)cc2CN1CC1C2CC1CN(C)C2 (single isomer, unassigned) [Compound 531] | 7.00 to 9.00 | V (V: >1000) | < 4.00 |

Now from value to compound:

| pIC50 [1] | Selectivity (6 v 8) [1] | pIC50 [2] | Compound |
| --- | --- | --- | --- |
| 7.00 to 9.00 | IV (IV: >100-1000) | 4.00 to 5.00 | O=C(NO)c1cc(F)c2c(c1)CCN([C@H]1CCN(Cc3ccccc3)C3(CCC3)C1)C2 (single isomer, unassigned) [Compound 443] |
| 7.00 to 9.00 | IV (IV: >100-1000) | 4.00 to 5.00 | O=C(NO)c1cc(F)c2c(c1)CCN([C@@H]1CCN(Cc3ccccc3)C3(CCC3)C1)C2 (single isomer, unassigned) [Compound 444] |
| 7.00 to 9.00 | V (V: >1000) | 4.00 to 5.00 | O=C(NO)c1cc(F)c2c(c1)CCN(C1CCOC3(CCC3)C1)C2 (single isomer, unassigned) [Compound 446] |
| 6.00 to 7.00 | III (III: >10-100) | 5.00 to 6.00 | CC[C@@H]1Cc2c(F)cc(C(=O)NO)cc2CN1CC12CC3CC(CC(C3)C1)C2 (single isomer, unassigned) [Compound 507] |
| 7.00 to 9.00 | III (III: >10-100) | 5.00 to 6.00 | CC[C@@H]1Cc2c(F)cc(C(=O)NO)cc2CN1CC12CC3CC(CC(C3)O1)C2 (single isomer, unassigned) [Compound 509] |
| 7.00 to 9.00 | IV (IV: >100-1000) | 5.00 to 6.00 | CC[C@H]1Cc2c(F)cc(C(=O)NO)cc2CN1CC12CC3CC(CC(C3)O1)C2 (single isomer, unassigned) [Compound 510] |
| 7.00 to 9.00 | III (III: >10-100) | 6.00 to 7.00 | CC[C@@H]1Cc2c(F)cc(C(=O)NO)cc2CN1CC1CC2(CCCCC2)C1 (single isomer, unassigned) [Compound 521] |
| 7.00 to 9.00 | IV (IV: >100-1000) | 4.00 to 5.00 | CC[C@H]1Cc2c(F)cc(C(=O)NO)cc2CN1CC12CC(NC)(C1)C2 (single isomer, unassigned) [Compound 523] |
| 7.00 to 9.00 | III (III: >10-100) | 5.00 to 6.00 | CC[C@@H]1Cc2c(F)cc(C(=O)NO)cc2CN1CC12CC(NC)(C1)C2 (single isomer, unassigned) [Compound 524] |
| 7.00 to 9.00 | III (III: >10-100) | 5.00 to 6.00 | CC[C@H]1Cc2c(F)cc(C(=O)NO)cc2CN1CC12CC(NC(C)=O)(C1)C2 (single isomer, unassigned) [Compound 525] |
| 7.00 to 9.00 | IV (IV: >100-1000) | 4.00 to 5.00 | CC[C@H]1Cc2c(F)cc(C(=O)NO)cc2CN1CC1C2CNCC1C2 (single isomer, unassigned) [Compound 529] |
| 6.00 to 7.00 | IV (IV: >100-1000) | 4.00 to 5.00 | CC[C@@H]1Cc2c(F)cc(C(=O)NO)cc2CN1CC12CC(C1)N(C)C2 (single isomer, unassigned) [Compound 534] |
| 7.00 to 9.00 | IV (IV: >100-1000) | 5.00 to 6.00 | CC[C@H]1Cc2c(F)cc(C(=O)NO)cc2CN1CC12CC(C1)N(C)C2 (single isomer, unassigned) [Compound 535] |
| 7.00 to 9.00 | IV (IV: >100-1000) | 4.00 to 5.00 | CC[C@H]1Cc2c(F)cc(C(=O)NO)cc2CN1C[C@]12CN[C@H](CO1)C2 (single isomer, unassigned) [Compound 549] |
| 7.00 to 9.00 | IV (IV: >100-1000) | 4.00 to 5.00 | CC[C@H]1Cc2c(F)cc(C(=O)NO)cc2CN1C[C@]12C[C@H](CO1)N(C)C2 (single isomer, unassigned) [Compound 552] |
